According to patent publication US9649309B2 (priority 2014, dated 2017):

What was measured:
Axl = Axl (Homo sapiens (Human), UniProt P30530); details: read-out: IC50 Axl
Tyro3 = Tyro3 (Homo sapiens (Human), UniProt Q06418); details: read-out: IC50 Tyro3
Sequence of Tyro3 (Q06418 41-890 limits assumed): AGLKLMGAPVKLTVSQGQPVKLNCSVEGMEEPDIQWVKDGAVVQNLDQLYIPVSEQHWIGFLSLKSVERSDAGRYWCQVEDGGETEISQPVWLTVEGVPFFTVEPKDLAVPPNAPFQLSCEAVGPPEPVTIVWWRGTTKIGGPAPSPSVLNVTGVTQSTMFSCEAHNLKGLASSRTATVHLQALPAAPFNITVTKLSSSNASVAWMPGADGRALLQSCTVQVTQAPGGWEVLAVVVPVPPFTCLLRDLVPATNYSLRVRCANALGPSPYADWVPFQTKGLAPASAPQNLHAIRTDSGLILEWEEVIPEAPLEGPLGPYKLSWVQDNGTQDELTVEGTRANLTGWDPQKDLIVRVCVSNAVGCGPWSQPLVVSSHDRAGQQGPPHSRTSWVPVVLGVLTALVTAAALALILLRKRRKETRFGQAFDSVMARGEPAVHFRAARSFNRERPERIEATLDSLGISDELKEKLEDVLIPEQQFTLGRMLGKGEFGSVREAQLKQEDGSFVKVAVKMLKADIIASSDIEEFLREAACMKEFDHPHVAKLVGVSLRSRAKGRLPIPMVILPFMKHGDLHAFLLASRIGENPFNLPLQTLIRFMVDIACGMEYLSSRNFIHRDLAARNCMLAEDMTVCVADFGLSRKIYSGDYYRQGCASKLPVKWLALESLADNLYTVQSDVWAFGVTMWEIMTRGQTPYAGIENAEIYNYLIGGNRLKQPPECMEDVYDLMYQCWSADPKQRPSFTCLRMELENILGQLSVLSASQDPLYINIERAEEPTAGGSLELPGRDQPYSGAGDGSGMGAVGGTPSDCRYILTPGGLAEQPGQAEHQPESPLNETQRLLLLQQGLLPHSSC

Sequence of Axl (P30530 26-894 limits assumed): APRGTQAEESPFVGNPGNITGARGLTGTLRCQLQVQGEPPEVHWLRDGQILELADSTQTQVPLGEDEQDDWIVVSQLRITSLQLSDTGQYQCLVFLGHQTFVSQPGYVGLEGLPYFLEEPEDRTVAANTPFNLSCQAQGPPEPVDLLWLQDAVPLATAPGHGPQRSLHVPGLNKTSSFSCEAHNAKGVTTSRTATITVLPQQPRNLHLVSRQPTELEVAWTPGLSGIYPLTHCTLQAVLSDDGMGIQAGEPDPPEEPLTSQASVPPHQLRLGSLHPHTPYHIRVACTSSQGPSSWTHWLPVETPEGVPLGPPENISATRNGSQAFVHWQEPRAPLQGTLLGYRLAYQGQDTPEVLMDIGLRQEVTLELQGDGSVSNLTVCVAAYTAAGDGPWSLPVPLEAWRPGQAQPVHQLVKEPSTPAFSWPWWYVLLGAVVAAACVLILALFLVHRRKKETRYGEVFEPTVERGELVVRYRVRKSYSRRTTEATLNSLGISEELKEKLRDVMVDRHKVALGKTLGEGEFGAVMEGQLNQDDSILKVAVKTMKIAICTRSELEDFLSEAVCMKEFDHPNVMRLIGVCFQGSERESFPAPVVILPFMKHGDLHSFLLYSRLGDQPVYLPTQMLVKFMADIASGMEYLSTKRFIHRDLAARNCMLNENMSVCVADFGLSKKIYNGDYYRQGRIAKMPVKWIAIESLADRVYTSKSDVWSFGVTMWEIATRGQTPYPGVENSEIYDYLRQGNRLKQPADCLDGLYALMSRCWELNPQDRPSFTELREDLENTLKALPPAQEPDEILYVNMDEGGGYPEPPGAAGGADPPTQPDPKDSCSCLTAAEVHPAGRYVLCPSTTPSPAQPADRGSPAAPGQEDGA

| IC50 (Axl) [nM] | IC50 (Tyro3) [nM] | SMILES |
| --- | --- | --- |
| 812 | 559 | CCCCNc1ncc(C(=O)NCc2ccc(-n3cccc3)cc2)c(N[C@H]2CC[C@H](O)CC2)n1 [UNC2880A] |
| 822 | 272 | CCCCNc1ncc(C(=O)NCc2ccc(-n3ccnc3C)cc2)c(N[C@H]2CC[C@H](O)CC2)n1 [UNC3004A] |
| 489 | 244 | CCCCNc1ncc(C(=O)NCc2ccc(-c3cccc(OC)c3)nc2)c(N[C@H]2CC[C@H](O)CC2)n1 [UNC4246A] |
| 420 | 178 | CCCCNc1ncc(C(=O)NCC2CCN(C(C)C)CC2)c(N[C@H]2CC[C@H](O)CC2)n1 [UNC4289A] |
| 5540 | 4640 | CCCCNc1ncc(C(=O)NCCCN2CCOCC2)c(NCCCC)n1 [UNC1840A] |
| 471 | 217 | CCCCNc1ncc(C(=O)NCc2cncnc2)c(N[C@H]2CC[C@H](O)CC2)n1 [UNC4307A] |
| 419 | 176 | CCCCNc1ncc(-c2ccc(NC3CC3)nn2)c(N[C@H]2CC[C@H](O)CC2)n1 [UNC3069A] |
| 336 | 156 | CCCCNc1ncc(C(=O)NCc2ccc(-c3ccccc3OC)nc2)c(N[C@H]2CC[C@H](O)CC2)n1 [UNC4255A] |
| 912 | 377 | CCCCNc1ncc(-c2ccc(N3CCCC3)nn2)c(N[C@H]2CC[C@H](O)CC2)n1 [UNC3044A] |
| 196 | 276 | CCCCNc1ncc(C(=O)NCc2cncs2)c(N[C@H]2CC[C@H](O)CC2)n1 [UNC4344A] |
| 96 | 71 | CCCCNc1ncc(-c2ncc(CN3CCN(C)CC3)s2)c(N[C@H]2CC[C@H](O)CC2)n1 [UNC3121A] |
| 1800 | 1270 | CCCCNc1ncc(C(=O)NCc2ccc(-c3ccc4ccccc4c3)nc2)c(N[C@H]2CC[C@H](O)CC2)n1 [UNC4235A] |
| 30000 | 867 | CCCCNc1ncc(-c2cc(Nc3cccc(C(C)(C)C)c3)ncn2)c(N[C@H]2CC[C@H](O)CC2)n1 [UNC4333A] |
| 1200 | 412 | CCCCNc1ncc(C(=O)NCC(=O)N2CCCCC2)c(N[C@H]2CC[C@H](O)CC2)n1 [UNC2604A] |
| 47 | 7.4 | CCCCNc1ncc(-c2ccc(C3(N4CCOCC4)CCCC3)cn2)c(NC2CCC(O)CC2)n1 (centres unmarked) [UNC3667A] |
| 1120 | 506 | CCCCNc1ncc(C(=O)NCC2CCCCC2)c(N[C@H]2CC[C@H](O)CC2)n1 [UNC2603A] |
| 42 | 20 | CCCCNc1ncc(-c2ccc(C=C3CCN(C)CC3)cn2)c(N[C@H]2CC[C@H](O)CC2)n1 [UNC4338A] |
| 409 | 184 | CCCCNc1ncc(C(=O)Nc2ccc(CCN3CCOCC3)cc2)c(N[C@H]2CC[C@H](O)CC2)n1 [UNC2805A] |

| IC50 (Axl) [nM] | IC50 (Tyro3) [nM] | SMILES |
| --- | --- | --- |
| 205 | 113 | CCCCNc1ncc(C(=O)NC2CCN(CCCc3ccccc3)CC2)c(N[C@H]2CC[C@H](O)CC2)n1 [UNC2801A] |
| 119 | 28 | CCCCNc1ncc(-c2ccc(CN3C[C@H](C)NC[C@H]3C)cn2)c(NC2CCC(O)CC2)n1 (some centres unmarked) [UNC4109A] |
| 292 | 153 | CCCCNc1ncc(C(=O)NCC2CCN(C3CCCCC3)CC2)c(N[C@H]2CC[C@H](O)CC2)n1 [UNC4302A] |
| 220 | 148 | CCCCNc1ncc(C(=O)NCc2cccs2)c(N[C@H]2CC[C@H](O)CC2)n1 [UNC2762A] |
| 55 | 18 | CCCCNc1ncc(-c2ccc(CN3CCN[C@H](C)C3)cn2)c(NC2CCC(O)CC2)n1 (some centres unmarked) [UNC4113A] |
| 40 | 13 | CCCCNc1ncc(-c2ccc(C=C3CCNCC3)cn2)c(N[C@H]2CC[C@H](O)CC2)n1 [UNC4336A] |
| 1090 | 502 | CCCCNc1ncc(C(=O)NCc2cccc3ccccc23)c(N[C@H]2CC[C@H](O)CC2)n1 [UNC2763A] |
| 39 | 22 | CCCCNc1ncc(-c2ccc(CC3CCN(C(C)C)CC3)cn2)c(N[C@H]2CC[C@H](O)CC2)n1 [UNC4339A, trans-4-((2-(butylamino)-5-(5-((1-isopropylpiperidin-4-yl)methyl)pyridin-2-yl)pyrimidin-4-yl)amino)cyclohexan-1-ol] |
| 325 | 183 | CCCCNc1ncc(C(=O)NCc2ccc(N3CCCC3)cc2)c(N[C@H]2CC[C@H](O)CC2)n1 [UNC2886A] |
| 30000 | 30000 | CCCCNc1ncc(-c2cn(C(c3ccccc3)(c3ccccc3)c3ccccc3)cn2)c(N[C@H]2CC[C@H](O)CC2)n1 [UNC3117A] |
| 777 | 486 | C=CCN1CCC(CNC(=O)c2cnc(NCCCC)nc2N[C@H]2CC[C@H](O)CC2)CC1 [UNC4303A] |
| 122 | 68 | CCCCNc1ncc(-c2ccc(CCCN3CCCC3)cn2)c(N[C@H]2CC[C@H](O)CC2)n1 [UNC4220A] |
| 52 | 11 | CCCCNc1ncc(-c2ccc(C3(N4CCOCC4)CCC3)cn2)c(NC2CCC(O)CC2)n1 (centres unmarked) [UNC3666A] |
| 277 | 172 | CCCCNc1ncc(C(=O)NCc2ccc(-n3cccn3)cc2)c(N[C@H]2CC[C@H](O)CC2)n1 [UNC2744A] |
| 513 | 234 | CCCCNc1ncc(-c2cc(Nc3ccc(OC)cc3)ncn2)c(N[C@H]2CC[C@H](O)CC2)n1 [UNC4269A] |
| 30000 | 363 | CCCCNc1ncc(-c2ccccn2)c(Nc2ccc(O)cc2)n1 [UNC2998A] |
| 4440 | 221 | CCCCNc1ncc(-c2ccc(OC)nn2)c(N[C@H]2CC[C@H](O)CC2)n1 [UNC3049A] |

| SMILES | IC50 (Axl) [nM] | IC50 (Tyro3) [nM] |
| --- | --- | --- |
| CCCCNc1ncc(-c2nc(C(F)(F)F)cs2)c(N[C@H]2CC[C@H](O)CC2)n1 [UNC3149A] | 30000 | 30000 |
| CCCCNc1ncc(-c2nc(C(=O)O)cs2)c(N[C@H]2CC[C@H](O)CC2)n1 [UNC3139A] | 4540 | 2550 |
| CCCCNc1ncc(C(=O)NCc2ccc(-n3cnc(CO)c3)cc2)c(N[C@H]2CC[C@H](O)CC2)n1 [UNC3183A] | 703 | 372 |
| CCCCNc1ncc(-c2ccc(C3=CCNCC3)cn2)c(N[C@H]2CC[C@H](O)CC2)n1 [UNC4354A] | 27 | 24 |
| OCCCCNc1ncc(-c2nccs2)c(N[C@H]2CC[C@H](O)CC2)n1 [UNC3146A] | 984 | 1010 |
| CCCCNc1ncc(-c2ccc(NC(=O)C3CCC3)cn2)c(NC2CCC(O)CC2)n1 (centres unmarked) [UNC2790A] | 835 | 338 |
| CCCCNc1ncc(-c2cncc(N3CCOCC3)n2)c(N[C@H]2CC[C@H](O)CC2)n1 [UNC3138A] | 1250 | 935 |
| CCCCNc1ncc(-c2ccc(CNC3CC4CCC(C3)N4C)cn2)c(N[C@H]2CC[C@H](O)CC2)n1 (some centres unmarked) [UNC4165A] | 18 | 8 |
| CCCCNc1ncc(-c2ccc(NC(=O)c3ccccc3)cn2)c(NC2CCC(O)CC2)n1 (centres unmarked) [UNC2713A] | 522 | 325 |
| CCCCNc1ncc(-c2ccc(NC(=O)C3CCCC3)cn2)c(NC2CCC(O)CC2)n1 (centres unmarked) [UNC2791A] | 886 | 416 |
| CCCCNc1ncc(-c2ccc(NC(=O)C3CC3)cn2)c(NC2CCC(O)CC2)n1 (centres unmarked) [UNC2711A] | 644 | 265 |
